Assay results: patent US8916183B2, “Pesticidal compositions and processes related thereto” (priority 2012, dated 2014)
Read-outs that look alike come from different tables or passages of the source.

Tests used:
Format in all cases: in vivo
[1] = test system: Beet Armyworm (BAW) (Spodoptera exigua); experiment: Bioassay on beet armyworm (BAW), 128-well diet tray assay; settings: Spodoptera exigua, read-out: % Mortality BAW 50 μg/cm^2
[2] = test system: Corn Earworm (CEW) (Helicoverpa zea); experiment: Bioassay on corn earworm (CEW), 128-well diet tray assay; settings: Helicoverpa zea, read-out: % Mortality CEW 50 μg/cm^2
Summary of the method: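 Larvae in a 128-well diet tray were held at 25° C under 14:10 light-dark for five to seven days. Percent mortality was scored per well and averaged over eight wells, then reported on a rating scale.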

[3] = test system: Green Peach Aphid (GPA) (Myzus persicae); experiment: Bioassay on green peach aphid (GPA), foliar spray on cabbage seedlings; settings: read-out: % Mortality GPA 200 ppm
Summary of the method: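 Cabbage seedlings (2-3 true leaves), each infested a day earlier with 20-50 wingless adult and nymph GPA, were sprayed on both leaf sides to runoff, four pots per treatment. Corrected % control was calculated against solvent-check plants.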

SMILES | mortality at 50 µg/cm2 ([1]; beet armyworm, 50 μg/cm^2) [%] | mortality at 50 µg/cm2 ([2]; corn earworm, 50 μg/cm^2) [%] | mortality at 200 ppm ([3]; green peach aphid, 200 ppm) [%] | mortality at 50 µg/cm2 [1] [%] | mortality at 50 µg/cm2 [2] [%] | mortality at 200 ppm [3] [%]
Cc1cccc(C)c1/N=C(/N/N=C/c1ccc(-c2ncn(-c3ccc(OC(F)(F)F)cc3)n2)cc1)SCc1ccc(OC(F)(F)F)cc1 [Compound 8C] | 50 to 100 | 50 to 100 | 0 to 80 | – | – | –
COc1cc(C)c(/N=C(/N/N=C/c2ccc(-c3ncn(-c4ccc(OC(F)(F)F)cc4)n3)cc2)SCOC(=O)C(C)OCC(F)(F)F)c(C)c1 (stereo not drawn) [Compound 38C] | 50 to 100 | 50 to 100 | 0 | – | – | –
CC(C)c1ccccc1N1C(=O)CCS/C1=N\N=C\c1ccc(-c2ncn(-c3ccc(OC(F)(F)F)cc3)n2)cc1 [Compound 224C] | 50 to 100 | 50 to 100 | 0 to 80 | – | – | –
Cc1ccc(N2/C(=N/N=C/c3ccc(-c4ncn(-c5ccc(OC(F)(F)F)cc5)n4)cc3)SCC2(C)O)c(C(C)C)c1 (stereo not drawn) [Compound 251C] | 50 to 100 | 50 to 100 | 0 to 80 | – | – | –
CCc1cccc(C)c1N1CCS/C1=N\N=C\c1ccc(-c2ncn(-c3ccc(OC(F)(F)F)cc3)n2)cc1 [Compound 136C] | 50 to 100 | 50 to 100 | 0 | – | – | –
CC(C)Cc1ccccc1N1CCS/C1=N\N=C\c1ccc(-c2ncn(-c3ccc(OC(F)(F)F)cc3)n2)cc1 [Compound 150C] | 50 to 100 | 50 to 100 | 0 | – | – | –
Cc1cccc(C)c1/N=C(/N/N=C/c1ccc(-c2ncn(-c3ccc(OC(F)(F)F)cc3)n2)cc1)SC/C=C/Br [Compound 4C] | 50 to 100 | 50 to 100 | 0 to 80 | – | – | –
Cc1cc(C)c(N2CCS/C2=N\N=C\c2ccc(-c3ncn(-c4ccc(OC(F)(F)F)cc4)n3)cc2)c(C)c1 [Compound 139C] | 50 to 100 | 50 to 100 | 0 to 80 | – | – | –
COc1cc(C)c(/N=C(/N/N=C/c2ccc(-c3ncn(-c4ccc(OC(F)(F)F)cc4)n3)cc2)SCC(=O)NCCCN)c(C)c1 [Compound 64C] | 50 to 100 | 50 to 100 | 0 | – | – | –
Cc1cccc(C)c1/N=C(/N/N=C/c1ccc(-c2ncn(-c3ccc(OC(F)(F)F)cc3)n2)cc1)SCC(=O)N1CCN(C(=O)OC(C)(C)C)CC1 [Compound 57C] | 50 to 100 | 50 to 100 | 0 to 80 | – | – | –
CC1S/C(=N\N=C\c2ccc(-c3ncn(-c4ccc(OC(F)(F)F)cc4)n3)cc2)N(c2c(F)cccc2F)C1=O (stereo not drawn) [Compound 131C] | 50 to 100 | 50 to 100 | 0 | – | – | –
Cc1cccc(C)c1/N=C(/N/N=C/c1ccc(-c2ncn(-c3ccc(OC(F)(F)F)cc3)n2)cc1)SCc1ccc(C(=O)O)cc1 [Compound 6C] | 50 to 100 | 50 to 100 | 0 | – | – | –
Cc1cccc(Cl)c1N1/C(=N/N=C/c2ccc(-c3ncn(-c4ccc(OC(F)(F)F)cc4)n3)cc2)SCC1C (stereo not drawn) [Compound 158C] | 50 to 100 | 50 to 100 | 0 to 80 | – | – | –
Cc1cccc(C)c1/N=C(/N/N=C/c1ccc(-c2ncn(-c3ccc(OC(F)(F)F)cc3)n2)cc1)SCc1c(-c2ccccc2)noc1C [Compound 20C] | 50 to 100 | 50 to 100 | 0 | – | – | –
Cc1cccnc1N1CCCS/C1=N\N=C\c1ccc(-c2ncn(-c3ccc(OC(F)(F)F)cc3)n2)cc1 [Compound 198C] | 50 to 100 | 50 to 100 | 0 | – | – | –
CC(/N=C(/N/N=C/c1ccc(-c2ncn(-c3ccc(OC(F)(F)F)cc3)n2)cc1)SCC(=O)O)c1ccccc1 (stereo not drawn) [Compound 54C] | 50 to 100 | 50 to 100 | 0 | – | – | –
Fc1cccc(Cl)c1N1CCCS/C1=N\N=C\c1ccc(-c2ncn(-c3ccc(OC(F)(F)F)cc3)n2)cc1 [Compound 188C] | 50 to 100 | 50 to 100 | 0 to 80 | – | – | –
O=C1CS/C(=N\N=C\c2ccc(-c3ncn(-c4ccc(OC(F)(F)F)cc4)n3)cc2)N1c1c(F)cccc1Cl [Compound 95C] | 50 to 100 | 50 to 100 | 0 to 80 | – | – | –
COc1ccc(C)cc1N1CCCS/C1=N\N=C\c1ccc(-c2ncn(-c3ccc(OC(F)(F)F)cc3)n2)cc1 [Compound 204C] | 50 to 100 | 50 to 100 | 0 to 80 | – | – | –
Cc1cccc(C)c1/N=C(/N/N=C/c1ccc(-c2ncn(-c3ccc(OC(F)(F)F)cc3)n2)cc1)SCC#C[Si](C)(C)C [Compound 9C] | – | – | – | 50 to 100 | 50 to 100 | 0

SMILES | mortality at 50 µg/cm2 ([1]; beet armyworm, 50 μg/cm^2) [%] | mortality at 50 µg/cm2 ([2]; corn earworm, 50 μg/cm^2) [%] | mortality at 200 ppm ([3]; green peach aphid, 200 ppm) [%] | mortality at 50 µg/cm2 [1] [%] | mortality at 50 µg/cm2 [2] [%] | mortality at 200 ppm [3] [%]
COc1ccc(N2CCCS/C2=N\N=C\c2ccc(-c3ncn(-c4ccc(OC(F)(F)F)cc4)n3)cc2)cc1 [Compound 202C] | 50 to 100 | 50 to 100 | 0 to 80 | – | – | –
Cc1cccc(C)c1/N=C(/N/N=C/c1ccc(-c2ncn(-c3ccc(OC(F)(F)C(F)(F)F)cc3)n2)cc1)SCC(=O)O [Compound 49C] | 50 to 100 | 50 to 100 | 0 to 80 | – | – | –
CCOCC(=O)OCS/C(=N\c1c(C)cc(OC)cc1C)N/N=C/c1ccc(-c2ncn(-c3ccc(OC(F)(F)F)cc3)n2)cc1 [Compound 29C] | 50 to 100 | 50 to 100 | 0 to 80 | – | – | –
CCCc1ccccc1N1/C(=N/N=C/c2ccc(-c3ncn(-c4ccc(OC(F)(F)F)cc4)n3)cc2)SCC1(C)O (stereo not drawn) [Compound 256C] | 50 to 100 | 50 to 100 | 0 to 80 | – | – | –
CCOCC(=O)OCS/C(=N\c1c(C)cccc1C)N/N=C/c1ccc(-c2ncn(-c3ccc(OC(F)(F)F)cc3)n2)cc1 [Compound 22C] | 50 to 100 | 50 to 100 | 0 to 80 | – | – | –
CC(C)c1ccccc1N1/C(=N/N=C/c2ccc(-c3ncn(-c4ccc(OC(F)(F)C(F)(F)F)cc4)n3)cc2)SCC1(C)O (stereo not drawn) [Compound 262C] | 50 to 100 | 50 to 100 | 0 to 80 | – | – | –
CCCS/C(=N\c1c(Cl)cccc1Cl)N/N=C/c1ccc(-c2ncn(-c3ccc(OC(F)(F)F)cc3)n2)cc1 [Compound 3C] | 50 to 100 | 50 to 100 | 0 | – | – | –
Cc1cccc(C)c1/N=C(/N/N=C/c1ccc(-c2ncn(-c3ccc(OC(F)(F)F)cc3)n2)cc1)SCOC(=O)OC(C)C [Compound 24C] | 50 to 100 | 50 to 100 | 0 to 80 | – | – | –
CC(C)c1ccccc1N1/C(=N/N=C/c2ccc(-c3ncn(-c4ccc(OC(F)(F)F)cc4)n3)cc2)SCC1(O)c1ccccc1C(F)(F)F (stereo not drawn) [Compound 263C] | 50 to 100 | 50 to 100 | 0 to 80 | – | – | –
CC(C)=Cc1ccccc1N1C(=O)CS/C1=N\N=C\c1ccc(-c2ncn(-c3ccc(OC(F)(F)F)cc3)n2)cc1 [Compound 121C] | 50 to 100 | 50 to 100 | 0 to 80 | – | – | –
CC(C)c1cc(F)c(F)cc1N1/C(=N/N=C/c2ccc(-c3ncn(-c4ccc(OC(F)(F)F)cc4)n3)cc2)SCC1(C)O (stereo not drawn) [Compound 259C] | 50 to 100 | 50 to 100 | 0 | – | – | –
Cc1cccc(Cl)c1N1C(=O)CS/C1=N\N=C\c1ccc(-c2ncn(-c3ccc(OC(F)(F)F)cc3)n2)cc1 [Compound 93C] | 50 to 100 | 50 to 100 | 0 | – | – | –
Cc1cccc(C)c1/N=C(/N/N=C/c1ccc(-c2ncn(-c3ccc(OC(F)(F)F)cc3)n2)cc1)SCC(=O)NCCCNC(=O)OC(C)(C)C [Compound 58C] | 50 to 100 | 50 to 100 | 0 to 80 | – | – | –
CCc1cccc(C)c1N1C(=O)CS/C1=N\N=C\c1ccc(-c2ncn(-c3ccc(OC(F)(F)F)cc3)n2)cc1 [Compound 111C] | 50 to 100 | 50 to 100 | 0 to 80 | – | – | –
Cc1cccc(Cl)c1N1/C(=N/N=C/c2ccc(-c3ncn(-c4ccc(OC(F)(F)F)cc4)n3)cc2)SCC1(C)O (stereo not drawn) [Compound 244C] | 50 to 100 | 50 to 100 | 0 | – | – | –
COc1ccc(N2CCS/C2=N\N=C\c2ccc(-c3ncn(-c4ccc(OC(F)(F)F)cc4)n3)cc2)c(C)c1 [Compound 137C] | 50 to 100 | 50 to 100 | 0 | – | – | –
Cc1cccnc1N1C(=O)CS/C1=N\N=C\c1ccc(-c2ncn(-c3ccc(OC(F)(F)F)cc3)n2)cc1 [Compound 117C] | 50 to 100 | 50 to 100 | 0 | – | – | –
CC(C)c1ccccc1N1CCCS/C1=N\N=C\c1ccc(-c2ncn(-c3ccc(C(F)(F)F)cc3)n2)cc1 [Compound 179C] | 50 to 100 | 50 to 100 | 0 | – | – | –
CS/C(=N\c1ccc(N(C)C)cc1)N/N=C/c1ccc(-c2ncn(-c3ccc(OC(F)(F)F)cc3)n2)cc1 [Compound 1C, N-(4-dimethylaminophenyl)-S-methyl-2-{4-[1-(4-trifluoromethoxyphenyl)-1H-[1,2,4]-triazol-3-yl]-benzylidene}-hydrazine-carbothioamide] | 50 to 100 | 50 to 100 | 0 | – | – | –
COc1cc(C)c(-n2c(C)cs/c2=N\N=C\c2ccc(-c3ncn(-c4ccc(OC(F)(F)F)cc4)n3)cc2)c(C)c1 [Compound 172C] | 50 to 100 | 50 to 100 | 0 | – | – | –
